Reference: patent US10092556B2, “Piperidine compound or salt thereof” (TAIHO PHARMACEUTICAL CO., LTD., priority 2012, dated 2018)

How the values were obtained:
[1] = system: human-derived stomach cancer cell line SNU-16; assay: Inhibitory effect on cell proliferation (CellTiter-Glo, 72 hours); type: cell-based; details: SNU-16, 72 hours
Source text: Cells of the human-derived stomach cancer cell line SNU-16 were each routinely subcultured in the 10% fetal bovine serum (FBS)-containing RPMI-1640 medium and 10% FBS-containing Dulbecco's Modified Eagle Medium (DMEM) in order to maintain cell density of no more than 80%. In order to initiate a test for the inhibitory activity on cell proliferation, cells were each suspended in the aforementioned medium and seeded in each well of a 96-well flat bottom plate (black plate with a transparent bottom) at 2,500 or 3,000 cells per well. The cells were then cultured for one day at 37° C. in an incubator containing 5% carbon dioxide gas. The next day, the compound of the present invention and the subject compound were dissolved in DMSO, and using DMSO, the test compounds were serially diluted to a concentration of 200 times the final concentration. The solution of the test compounds in DMSO was diluted with the medium used for culturing, and then added to each well of the cell culture plate at a final DMSO concentration of 0.5%. The cells were cultured for 72 hours at 37° C. in an incubator containing 5% carbon dioxide gas. The cells were counted at the time of addition of the test compounds and 72 hours after culturing using the CellTiter-Glo Luminescent Cell Viability Assay kit (the product of Promega) based on the protocol recommended by Promega. The reagent included in the kit was added to each plate, followed by stirring, and the plates were left to stand at room temperature for 10 minutes. Upon completion of the reaction, the luminescence signal was measured using a microplate reader.
The cell proliferation inhibitory rate was calculated from the following formula and the concentration of the test compound at which the cell proliferation was inhibited by 50% (GI50 (nM)) was determined. Cell proliferation inhibitory rate (%)=(C−T)/(C−C0)×100 T: Luminescence signal in a well with the addition of the test compound C: Luminescence signal in a well without the addition of the test compound C0: Luminescence signal in a well measured before the addition of the compound

[2] = Evaluation of oral absorbability (plasma concentration after oral administration); type: in vivo; details: BALB/cA mouse, 0.5% HPMC, 0.5-6 hours
Experimental: The test compound was suspended or dissolved in 0.5% HPMC and orally administered to a BALB/cA mouse. The blood was drawn from the retro-orbital venous plexus 0.5, 1, 2, 4, and 6 hours after oral administration to obtain plasma. The concentration of the compound in the plasma thus obtained was measured by LCMS and the oral absorbability was evaluated.

[3] = system: human uterine cervical cancer cell line (Hela-Luc); assay: Evaluation of the anti-tumor effect (2), Hela-Luc subcutaneous transplant in nude mouse; type: in vivo; details: Day 11, paclitaxel 20 mg/kg iv day 1
[4] = system: human uterine cervical cancer cell line (Hela-Luc); assay: Evaluation of the anti-tumor effect (1), Hela-Luc subcutaneous transplant in nude mouse; details: Day 23; paclitaxel 30 mg/kg iv day 1; compound 60 mg/kg oral twice a day on day 2 and 3
Source text: The luciferase-introduced human uterine cervical cancer cell line (Hela-Luc) was subcutaneously transplanted into a nude mouse, and when the volume of the grafted tumor reached 100 to 200 mm^3, five mice in one group were grouped into the single drug administration group and combinational administration group by a randomized stratification method so as to achieve a uniform tumor volume in each group (day 1). […] In order to compare the anti-tumor effect brought about by drug administration, setting the tumor volume at the time of grouping at 1, the relative tumor volume (RTV) was determined in accordance with the following formula as a rate of tumor proliferation. RTV=(Tumor volume on the day of measurement of tumor volume)/(Tumor volume at the time of grouping)
Meanwhile, as the index of systemic toxicity caused by drug administration, the body weight change (BWC) was used. BWC (%)=([(Body weight of mouse on the day of body weight measurement)−(Body weight of mouse at the time of grouping)]/(Body weight of mouse at the time of grouping))×100

[5] = Table 22, Compound 13 30 mg/kg oral twice a day on day 2 and 3
[6] = Table 23, Compound 22 100 mg/kg single, 60 mg/kg in combination, oral twice a day on day 2 and 3

Compound	GI50 [1]	oral absorbability (plasma concentration after oral administration) [2]	BWC (body weight change) [3, 5]	BWC (body weight change) [3, 6]	BWC (body weight change) [4]
Cc1cc(Nc2nc(CC3(C(=O)O)CCN(C(=O)c4cccc(Cl)c4Cl)CC3)ccc2F)n[nH]1 [Example 1, 1-(2,3-dichlorobenzoyl)-4-((5-fluoro-6-(5-methyl-1H-pyrazol-3-ylamino)pyridin-2-yl)methyl)piperidine-4-carboxylic acid]	120 nM	favorable oral absorbability			
Cc1cc(Nc2nc(CC3(C(=O)O)CCN(C(=O)c4cccc(Cl)c4F)CC3)ccc2F)n[nH]1 [Example 13, 1-(3-chloro-2-fluorobenzoyl)-4-((5-fluoro-6-(5-methyl-1H-pyrazol-3-ylamino)pyridin-2-yl)methyl)piperidine-4-carboxylic acid]	60 nM	favorable oral absorbability	6.0%		
CC(=O)O[C@H]1C(=O)[C@@]2(C)[C@H]([C@H](OC(=O)c3ccccc3)[C@]3(O)C[C@H](OC(=O)[C@H](O)[C@@H](NC(=O)c4ccccc4)c4ccccc4)C(C)=C1C3(C)C)[C@]1(OC(C)=O)CO[C@@H]1C[C@@H]2O [Paclitaxel, paclitaxel, reference compound]			5.4%	7.8%	3.0%
COc1ccc(CC2(C(=O)O)CCN(C(=O)c3cccc(Cl)c3F)CC2)nc1Nc1cc(C)[nH]n1 [Example 11, 1-(3-chloro-2-fluorobenzoyl)-4-((5-methoxy-6-(5-methyl-1H-pyrazol-3-ylamino)pyridin-2-yl)methyl)piperidine-4-carboxylic acid]		favorable oral absorbability			
Cc1cc(Nc2nc(CC3(C(=O)O)CCN(C(=O)c4cccc(Cl)c4F)CC3)ccc2Cl)n[nH]1 [Example 12, 1-(3-chloro-2-fluorobenzoyl)-4-((5-chloro-6-(5-methyl-1H-pyrazol-3-ylamino)pyridin-2-yl)methyl)piperidine-4-carboxylic acid]		favorable oral absorbability			
Cc1cc(Nc2nc(CC3(c4noc(C)n4)CCN(C(=O)c4cccc(Cl)c4F)CC3)ccc2F)n[nH]1 [Example 22, (3-chloro-2-fluorophenyl)(4-((5-fluoro-6-(5-methyl-1H-pyrazol-3-ylamino)pyridin-2-yl)methyl)-4-(5-methyl-1,2,4-oxadiazol-3-yl)piperidin-1-yl)methanone]	970 nM	favorable oral absorbability		6.9%	
